Data as given in PubChem BioAssay (NCI).
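Assay format: 96-well plates, 48-hour exposure. TGI is the concentration that stops growth completely.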

These compounds were tested on UACC-62 melanoma (assay: inhibition of tumour cell growth, NCI panel, 48 h).

Compound	TGI [µM]
O=C(/C=C/c1ccc(Cl)cc1)Oc1ccc(C=C2CCC/C(=C\c3ccc(OC(=O)/C=C/c4ccc(Cl)cc4)cc3)C2=O)cc1	> 100
COc1ccc2c(c1)c1c(n2CCN2CCCCC2)-c2cccc(OC)c2CC1	32.9
COc1ccc2nc(NC(=O)/C(C#N)=C/c3ccccc3)sc2c1	> 100
Cc1c(C)n(-c2ccccc2)c2nc(S(C)=O)nc(S(C)=O)c12 (stereo not given)	20.1
CC1(C)CC(=O)C2=C(C1)C(c1ccccc1Cl)C1C(=O)CC(C)(C)CC1(O)O2 (stereo not given)	> 100
CCc1c(O)cc(=O)oc1-c1ccc(OC)c(OC)c1	> 100
Cc1ccc2c(c1C)C(=O)C1(Cc3cc4c(cc3C1=O)CCC4)C2 (stereo not given)	> 100
CCCCI(O)OS(=O)(=O)c1ccc(C)cc1	> 100
C[C@@H]1CC[C@@]2(C)C(C(=O)O)=CCCC2[C@@]1(C)CC(=O)c1ccoc1 (stereo not given in full)	> 25
O=C(CCc1cc(O)cc(O)c1)NCCc1cc(OCc2ccccc2)cc(OCc2ccccc2)c1	40.2
c1ccc(C2=NC3OC2c2ccccc23)cc1 (stereo not given)	> 10
O=c1oc2ccc3ccccc3c2cc1-c1cn2ccsc2n1	34.2
CCOC(=O)CSc1nc(N)c2c(-c3ccccc3)c3c(nc2n1)CCCC3	> 100
COC(=O)/C=C(/C=C1/C(C#N)=C(N)N(c2ccc(Cl)cc2)C1(C)/C(=C\C(=O)OC)C(=O)OC)C(=O)OC (stereo not given)	27.4
O=c1c2c3c(sc2[nH]c(=S)n1-c1ccccc1)CCCc1ccc([N+](=O)[O-])cc1-3	85
CCOC(=O)c1c(N2CCCC2)[nH]c(=O)c(C(c2ccc(OC)cc2)c2c(O)c(C(=O)OCC)c(N3CCCC3)[nH]c2=O)c1O	> 100

Compound	TGI [µM]
CCOC1C=CC(=O)C(CO)O1 (stereo not given)	25.9
Cc1c2cccc-2c2cc(O)c3ccccc3c2n1-c1ccc(N(C)C)cc1	29.5
O=c1[nH]c(NCc2ccncc2)nc2nc[nH]c12	> 100
O=CC(I)=C(c1ccccc1)c1ccccc1	34.5
Cn1c2ccccc2c2ccc3c(c21)C(=O)c1ccc2c4ccccc4n(C)c2c1C3=O	> 100
Cc1ccc(-c2cc(-c3ccco3)c(C#N)c(=S)[nH]2)cc1	> 100
COc1ccc(C)cc1N1C(=O)C2ON(Cc3ccc(CC(N)=O)cc3)C(c3c4ccccc4c(Cl)c4ccccc34)C2C1=O (stereo not given)	45.2
COc1ccc(C2Oc3ccc(Cl)cc3C=C2[N+](=O)[O-])cc1 (stereo not given)	> 100
COCOc1ccc(C(=O)Oc2cccc3c2OC(C)(C)O3)c(OCOC)c1	95.7
COC(=O)c1ccccc1C1CN=NC12Cc1c(ccc(C)c1C)C2=O (stereo not given)	> 100
NCCN1CCCCCc2ccccc21	> 10
CN(C)CCN(c1ccccn1)c1ccccn1	> 100
CN(CCN1CCCC1)C1CCc2cc(Cl)c(Cl)cc2C1 (stereo not given)	19.4
CC(C)Oc1cccc(N2C(n3ccnc3)=Nc3ccncc3S2(=O)=O)c1	29.2
CC(C)NC(=O)OCc1c(COC(=O)NC(C)C)n(C)c2c1ccc1sccc12	32.5
O=C(CC(NC(=O)C(F)(F)F)C(=O)O)OCc1ccccc1 (stereo not given)	> 100

These compounds were tested on OVCAR-3 ovarian (assay: inhibition of tumour cell growth, NCI panel, 48 h).

Compound	TGI [µM]
O=C(/C=C/c1ccc(Cl)cc1)Oc1ccc(C=C2CCC/C(=C\c3ccc(OC(=O)/C=C/c4ccc(Cl)cc4)cc3)C2=O)cc1	> 100
COc1ccc2c(c1)c1c(n2CCN2CCCCC2)-c2cccc(OC)c2CC1	34.5
COc1ccc2nc(NC(=O)/C(C#N)=C/c3ccccc3)sc2c1	> 100
Cc1c(C)n(-c2ccccc2)c2nc(S(C)=O)nc(S(C)=O)c12 (stereo not given)	6.77
CC1(C)CC(=O)C2=C(C1)C(c1ccccc1Cl)C1C(=O)CC(C)(C)CC1(O)O2 (stereo not given)	> 100
CCc1c(O)cc(=O)oc1-c1ccc(OC)c(OC)c1	> 100
Cc1ccc2c(c1C)C(=O)C1(Cc3cc4c(cc3C1=O)CCC4)C2 (stereo not given)	> 100
CCCCI(O)OS(=O)(=O)c1ccc(C)cc1	> 100
C[C@@H]1CC[C@@]2(C)C(C(=O)O)=CCCC2[C@@]1(C)CC(=O)c1ccoc1 (stereo not given in full)	> 25
O=C(CCc1cc(O)cc(O)c1)NCCc1cc(OCc2ccccc2)cc(OCc2ccccc2)c1	52.2
c1ccc(C2=NC3OC2c2ccccc23)cc1 (stereo not given)	> 10
O=c1oc2ccc3ccccc3c2cc1-c1cn2ccsc2n1	43.8
CCOC(=O)CSc1nc(N)c2c(-c3ccccc3)c3c(nc2n1)CCCC3	> 100
COC(=O)/C=C(/C=C1/C(C#N)=C(N)N(c2ccc(Cl)cc2)C1(C)/C(=C\C(=O)OC)C(=O)OC)C(=O)OC (stereo not given)	42.3
O=c1c2c3c(sc2[nH]c(=S)n1-c1ccccc1)CCCc1ccc([N+](=O)[O-])cc1-3	> 100
CCOC(=O)c1c(N2CCCC2)[nH]c(=O)c(C(c2ccc(OC)cc2)c2c(O)c(C(=O)OCC)c(N3CCCC3)[nH]c2=O)c1O	> 100

Compound	TGI [µM]
CCOC1C=CC(=O)C(CO)O1 (stereo not given)	19.1
Cc1c2cccc-2c2cc(O)c3ccccc3c2n1-c1ccc(N(C)C)cc1	19.1
O=c1[nH]c(NCc2ccncc2)nc2nc[nH]c12	> 100
O=CC(I)=C(c1ccccc1)c1ccccc1	17.7
Cn1c2ccccc2c2ccc3c(c21)C(=O)c1ccc2c4ccccc4n(C)c2c1C3=O	> 100
Cc1ccc(-c2cc(-c3ccco3)c(C#N)c(=S)[nH]2)cc1	> 100
COc1ccc(C)cc1N1C(=O)C2ON(Cc3ccc(CC(N)=O)cc3)C(c3c4ccccc4c(Cl)c4ccccc34)C2C1=O (stereo not given)	> 100
COc1ccc(C2Oc3ccc(Cl)cc3C=C2[N+](=O)[O-])cc1 (stereo not given)	> 100
COCOc1ccc(C(=O)Oc2cccc3c2OC(C)(C)O3)c(OCOC)c1	> 100
COC(=O)c1ccccc1C1CN=NC12Cc1c(ccc(C)c1C)C2=O (stereo not given)	> 100
NCCN1CCCCCc2ccccc21	> 10
CN(C)CCN(c1ccccn1)c1ccccn1	> 100
CN(CCN1CCCC1)C1CCc2cc(Cl)c(Cl)cc2C1 (stereo not given)	32.1
CC(C)Oc1cccc(N2C(n3ccnc3)=Nc3ccncc3S2(=O)=O)c1	21.9
CC(C)NC(=O)OCc1c(COC(=O)NC(C)C)n(C)c2c1ccc1sccc12	36.9
O=C(CC(NC(=O)C(F)(F)F)C(=O)O)OCc1ccccc1 (stereo not given)	> 100

The compounds below were run on HS 578T breast (assay: inhibition of tumour cell growth, NCI panel, 48 h).

Compound	TGI [µM]
O=C(/C=C/c1ccc(Cl)cc1)Oc1ccc(C=C2CCC/C(=C\c3ccc(OC(=O)/C=C/c4ccc(Cl)cc4)cc3)C2=O)cc1	> 100
COc1ccc2c(c1)c1c(n2CCN2CCCCC2)-c2cccc(OC)c2CC1	42.4
COc1ccc2nc(NC(=O)/C(C#N)=C/c3ccccc3)sc2c1	> 100
Cc1c(C)n(-c2ccccc2)c2nc(S(C)=O)nc(S(C)=O)c12 (stereo not given)	70.5
CC1(C)CC(=O)C2=C(C1)C(c1ccccc1Cl)C1C(=O)CC(C)(C)CC1(O)O2 (stereo not given)	> 100
CCc1c(O)cc(=O)oc1-c1ccc(OC)c(OC)c1	> 100
Cc1ccc2c(c1C)C(=O)C1(Cc3cc4c(cc3C1=O)CCC4)C2 (stereo not given)	> 100
CCCCI(O)OS(=O)(=O)c1ccc(C)cc1	> 100
C[C@@H]1CC[C@@]2(C)C(C(=O)O)=CCCC2[C@@]1(C)CC(=O)c1ccoc1 (stereo not given in full)	> 25
O=C(CCc1cc(O)cc(O)c1)NCCc1cc(OCc2ccccc2)cc(OCc2ccccc2)c1	48.7
c1ccc(C2=NC3OC2c2ccccc23)cc1 (stereo not given)	> 10
O=c1oc2ccc3ccccc3c2cc1-c1cn2ccsc2n1	> 100
CCOC(=O)CSc1nc(N)c2c(-c3ccccc3)c3c(nc2n1)CCCC3	> 100
COC(=O)/C=C(/C=C1/C(C#N)=C(N)N(c2ccc(Cl)cc2)C1(C)/C(=C\C(=O)OC)C(=O)OC)C(=O)OC (stereo not given)	> 100
O=c1c2c3c(sc2[nH]c(=S)n1-c1ccccc1)CCCc1ccc([N+](=O)[O-])cc1-3	> 100
CCOC(=O)c1c(N2CCCC2)[nH]c(=O)c(C(c2ccc(OC)cc2)c2c(O)c(C(=O)OCC)c(N3CCCC3)[nH]c2=O)c1O	> 100
